This experiment can be described thus: Inhibition of LDHB Activity. The protocol: This example describes a human LDHB biochemical assay employed in the characterization of a compound of Formula I in an embodiment of the dislcosure.Test compounds were placed in a Greiner Bio-One (Monroe, N.C.) 1536-well black solid bottom assay plate. 200 mM Tris HCl, pH 7.4, 100 μM EDTA and 0.01% TWEEN-20 , final concentration, was used as the assay buffer. The LDHB reagent was 2 nM Human LDHB (Meridian Life Science, Inc., Memphis, Tenn.), final concentration, in assay buffer. The substrate reagent was 0.13 mM NADH and 0.16 mM sodium pyruvate, final concentration, in assay buffer. The resazurin/diaphorase coupling reagent was 0.037 mM resazurin and 0.133 mg/mL diaphorase, final concentration, in assay buffer.

Bounds are passed on as bounds.

As a reminder, the IC50 is the concentration that inhibits the measured activity by half. Lower therefore signals inhibition by little substance.

For `Cc1ccc(C#Cc2cccc(-c3nn(-c4nc(C(=O)O)cs4)c(CC4(C)CC4)c3Cc3ccc(S(N)(=O)=O)c(F)c3)c2)s1` [US11752138, Compound 123], the IC50 was under 100 nM.

Compound `Cc1ccc(C2CC2c2cccc(-c3nn(-c4nc(C(=O)O)cs4)c(CC4CC4)c3Cc3ccc(S(N)(=O)=O)c(F)c3)c2)s1` (configuration not stated) [US11752138, Compound 130] had an IC50 of under 100 nM.

The compound `NS(=O)(=O)c1ccc(Cc2c(-c3ccc(F)c(-c4ncc[nH]4)c3)nn(-c3nc(C(=O)O)cs3)c2CC2CC2)cc1F` [US11752138, Compound 159] displayed an IC50 of under 100 nM.

Take `N#Cc1ccc(-c2cccc(-c3nn(-c4nc(C(=O)O)cs4)c(CC4CC4)c3Cc3ccc(S(N)(=O)=O)c(F)c3)c2)cc1` [US11752138, Compound 176]: the IC50 is under 100 nM.

`Cc1ccc(C#Cc2cccc(-c3nn(-c4nc(C(=O)O)cs4)c(CCC4CC4)c3Cc3ccc(S(N)(=O)=O)c(F)c3)c2)s1` [US11752138, Compound 115]: the IC50 is under 100 nM.

The compound `Cc1cc(C)c(C#Cc2cccc(-c3nn(-c4nc(C(=O)O)cs4)c(CC4CC4)c3Cc3ccc(S(N)(=O)=O)c(F)c3)c2)s1` [US11752138, Compound 125] registered an IC50 of under 100 nM.

With `Cc1ccc(-c2cccc(-c3nn(-c4nc(C(=O)O)cs4)c(CC4CC4)c3Cc3ccc(S(N)(=O)=O)c(F)c3)c2)cc1F` [US11752138, Compound 167], the half-inhibitory concentration (IC50) was under 100 nM.

Take `Cc1ccc(C#Cc2cccc(-c3nn(-c4nc(C(=O)O)cs4)c(CC4CC4)c3Cc3ccc(S(N)(=O)=O)c(F)c3)c2)o1` [US11752138, Compound 129]: the IC50 is under 100 nM.

In the case of `Cc1ncc(-c2cc(-c3nn(-c4nc(C(=O)O)cs4)c(CC4CC4)c3Cc3ccc(S(N)(=O)=O)c(F)c3)ccc2F)[nH]1` [US11752138, Compound 161], the IC50 is under 100 nM.

Compound `NS(=O)(=O)c1ccc(Cc2c(-c3ccc(F)c(-c4cc(F)cc(F)c4)c3)nn(-c3nc(C(=O)O)cs3)c2CC2CC2)cc1F` [US11752138, Compound 156] showed an IC50 of under 100 nM.

With `COc1ccc(-c2cc(-c3nn(-c4nc(C(=O)O)cs4)c(CC4CC4)c3Cc3ccc(S(N)(=O)=O)c(F)c3)ccc2F)cc1C` [US11752138, Compound 150], the IC50 was under 100 nM.

Compound `Cc1ccc(/C=C/c2cccc(-c3nn(-c4nc(C(=O)O)cs4)c(CC4CC4)c3Cc3ccc(S(N)(=O)=O)c(F)c3)c2)s1` [US11752138, Compound 119] registered an IC50 of under 100 nM.

`CC(C)c1cccc(-c2cccc(-c3nn(-c4nc(C(=O)O)cs4)c(CC4CC4)c3Cc3ccc(S(N)(=O)=O)c(F)c3)c2)c1` [US11752138, Compound 173] displayed a half-maximal inhibitory concentration (IC50) of under 100 nM.

`Cc1cnc(C#Cc2cc(-c3nn(-c4nc(C(=O)O)cs4)c(CC4CC4)c3Cc3ccc(S(N)(=O)=O)c(F)c3)ccc2F)s1` [US11752138, Compound 114] yielded an IC50 of under 100 nM.

`NS(=O)(=O)c1ccc(Cc2c(-c3cccc(-c4cccc(Cl)c4)c3)nn(-c3nc(C(=O)O)cs3)c2CC2CC2)cc1F` [US11752138, Compound 175] returned an IC50 of under 100 nM.

In turn, `NS(=O)(=O)c1ccc(Cc2c(-c3cccc(C#Cc4ccc(Cl)s4)c3)nn(-c3nc(C(=O)O)cs3)c2CC2CC2)cc1F` [US11752138, Compound 118] yielded an IC50 of under 100 nM.

The compound `CC1CC=C(c2cc(-c3nn(-c4nc(C(=O)O)cs4)c(CC4CC4)c3Cc3ccc(S(N)(=O)=O)c(F)c3)ccc2F)CC1` (configuration not stated) [US11752138, Compound 101] came in with an IC50 of under 100 nM.

With `CC1(C)CC=C(c2cc(-c3nn(-c4nc(C(=O)O)cs4)c(CC4CC4)c3Cc3ccc(S(N)(=O)=O)c(F)c3)ccc2F)CC1` [US11752138, Compound 106], the IC50 was under 100 nM.

For `Cc1ccc(C#Cc2cc(-c3nn(-c4nc(C(=O)O)cs4)c(CCC4CC4)c3Cc3ccc(S(N)(=O)=O)c(F)c3)ccc2F)s1` [US11752138, Compound 113], the IC50 is under 100 nM.

For `CC(=O)c1cc(-c2nn(-c3nc(C(=O)O)cs3)c(CC3CC3)c2Cc2ccc(S(N)(=O)=O)c(F)c2)ccc1F` [US11752138, Compound 140], the IC50 was under 100 nM.

The compound `NS(=O)(=O)c1ccc(Cc2c(-c3cccc(-c4ccc(Cl)c(F)c4)c3)nn(-c3nc(C(=O)O)cs3)c2CC2CC2)cc1F` [US11752138, Compound 164] yielded an IC50 of under 100 nM.

`NS(=O)(=O)c1ccc(Cc2c(-c3cccc(-c4ccc(Cl)cc4)c3)nn(-c3nc(C(=O)O)cs3)c2CC2CC2)cc1F` [US11752138, Compound 166] gave an IC50 of under 100 nM.

`NS(=O)(=O)c1ccc(Cc2c(-c3ccc(F)c(NC(=O)c4ccccc4)c3)nn(-c3nc(C(=O)O)cs3)c2CC2CC2)cc1F` [US11752138, Compound 152]: the IC50 was under 100 nM.

`Cc1ccsc1C#Cc1cccc(-c2nn(-c3nc(C(=O)O)cs3)c(CC3CC3)c2Cc2ccc(S(N)(=O)=O)c(F)c2)c1` [US11752138, Compound 120] came in with an IC50 of under 100 nM.

`Cc1cnc(C#Cc2cccc(-c3nn(-c4nc(C(=O)O)cs4)c(CC4CC4)c3Cc3ccc(S(N)(=O)=O)c(F)c3)c2)o1` [US11752138, Compound 122] showed an IC50 of under 100 nM.

As to `CC1CCCC=C1c1cc(-c2nn(-c3nc(C(=O)O)cs3)c(CC3CC3)c2Cc2ccc(S(N)(=O)=O)c(F)c2)ccc1F` (configuration not stated) [US11752138, Compound 103], the IC50 was under 100 nM.

`Cc1ccc(C#Cc2cccc(-c3nn(-c4nc(C(=O)O)cs4)c(CC4CC4)c3Cc3ccc(S(N)(=O)=O)c(F)c3)c2)s1` [US11752138, Compound 112] displayed an IC50 of under 100 nM.

For the compound `COC1CC=C(c2cc(-c3nn(-c4nc(C(=O)O)cs4)c(CC4CC4)c3Cc3ccc(S(N)(=O)=O)c(F)c3)ccc2F)CC1` (configuration not stated) [US11752138, Compound 104], the IC50 was under 100 nM.

In the case of `Cc1ncc(C#Cc2cc(-c3nn(-c4nc(C(=O)O)cs4)c(CC4CC4)c3Cc3ccc(S(N)(=O)=O)c(F)c3)ccc2F)s1` [US11752138, Compound 111], the concentration for half-maximal inhibition (IC50) is under 100 nM.

For the compound `CC(C)c1ccc(-c2cccc(-c3nn(-c4nc(C(=O)O)cs4)c(CC4CC4)c3Cc3ccc(S(N)(=O)=O)c(F)c3)c2)cc1` [US11752138, Compound 169], the IC50 is under 100 nM.

Regarding `Cc1ccc(-c2cc(-c3nn(-c4nc(C(=O)O)cs4)c(CC4CC4)c3Cc3ccc(S(N)(=O)=O)c(F)c3)ccc2F)cc1F` [US11752138, Compound 137], the IC50 is under 100 nM.

Consider `CN(C)c1ccc(-c2cccc(-c3nn(-c4nc(C(=O)O)cs4)c(CC4CC4)c3Cc3ccc(S(N)(=O)=O)c(F)c3)c2)cc1` [US11752138, Compound 178], for which the IC50 was under 100 nM.

With `Cc1ccc(C#Cc2cc(-c3nn(-c4nc(C(=O)O)cs4)c(CC4CC4)c3Cc3ccc(S(N)(=O)=O)c(F)c3)ccc2F)s1` [US11752138, Compound 249], the 50% inhibitory concentration (IC50) is under 100 nM.

Take `COc1ccc(-c2cccc(-c3nn(-c4nc(C(=O)O)cs4)c(CC4CC4)c3Cc3ccc(S(N)(=O)=O)c(F)c3)c2)cc1C` [US11752138, Compound 165]: the IC50 is under 100 nM.

For `NS(=O)(=O)c1ccc(Cc2c(-c3cccc(C#Cc4ccc(C(F)F)s4)c3)nn(-c3nc(C(=O)O)cs3)c2CC2CC2)cc1F` [US11752138, Compound 121], the IC50 was under 100 nM.

Take `COc1cc(OC)cc(-c2cc(-c3nn(-c4nc(C(=O)O)cs4)c(CC4CC4)c3Cc3ccc(S(N)(=O)=O)c(F)c3)ccc2F)c1` [US11752138, Compound 153]: the IC50 was under 100 nM.

`CC(C)N1CC2(CN(c3cc(-c4nn(-c5nc(C(=O)O)cs5)c(CC5CC5)c4Cc4ccc(S(N)(=O)=O)c(F)c4)ccc3F)C2)C1` [US11752138, Compound 158] gave a 50% inhibitory concentration (IC50) of under 100 nM.

Values taken from BindingDB's records for patent US11752138 (Vanderbilt University, 2023).
